Measured values as given in patent US20260356814A1, “INDOLINE DERIVATIVES AS SEROTONERGIC AGENTS USEFUL FOR THE TREATMENT OF DISORDERS RELATED THERETO” (MINDSET PHARMA INC., priority 2022, published 2026).

Target: T1, human 5-HT1A receptor (Homo sapiens, UniProt P08908)
T1 construct: expressed in transfected cells; host or cells: CHO (HTR1A&Ga15-CHO)
T1 sequence (P08908 1-422): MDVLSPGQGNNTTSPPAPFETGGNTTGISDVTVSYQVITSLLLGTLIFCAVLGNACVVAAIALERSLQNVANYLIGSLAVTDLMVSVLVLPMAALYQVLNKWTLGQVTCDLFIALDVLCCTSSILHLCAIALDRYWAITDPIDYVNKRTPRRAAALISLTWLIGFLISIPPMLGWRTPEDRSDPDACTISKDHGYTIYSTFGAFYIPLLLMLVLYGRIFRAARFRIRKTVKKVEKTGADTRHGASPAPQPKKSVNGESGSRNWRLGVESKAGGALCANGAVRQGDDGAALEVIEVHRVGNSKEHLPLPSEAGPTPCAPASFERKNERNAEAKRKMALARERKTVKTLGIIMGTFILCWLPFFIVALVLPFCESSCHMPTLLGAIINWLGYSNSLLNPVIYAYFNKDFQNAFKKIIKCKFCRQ
Experiment: Human 5-HT1A: Functional FLIPR assay (agonist mode)
Type: cell-based
Details: for RFU@10 μM: @10 μM (head), footnote: curve fitting with activation (%) @ 10 mM with RFU, RFU=Fmax−Fmin; for EC50: FLIPR calcium, agonist mode, HTR1A&Gα15-CHO cells, ND: not detected, read-out: h5-HT1A, EC50
Procedure: The potential excitatory effects of compounds targeting on 5-hydroxytryptamine receptor 1A (5-HT1A) under agonist mode was assessed.
HTR1A&Ga15-CHO cells were cultured in DMEM/F12 medium containing 10% dialyzed FBS, 1x penicillin-streptomycin and 600 μg/mL Hygromycin B. The cells were passaged about three times a week, maintained between ~30% to ~90% confluence.
• 1. The cell culture medium (DMEM/F12 medium containing 10% dialyzed FBS, 1x penicillin-streptomycin and 600 μg/mL Hygromycin B), TrypLE™ Express and DPBS was warmed to R.T. in advance. • 2. The cell culture medium was removed from flask. Washed cells with DPBS. • 3. 1 mL TrypLE™ Express was added to the flask, mixed well by gentle shaking and cells were incubated at 37° C. for a few minutes. • 4. The cells were checked for morphological change under microscope, the digestion was stopped by adding 2 mL cell culture medium to the flask when most of cells turned to round. • 5. The cell suspension was transferred into a 15 mL centrifuge tube, and then centrifuged at 1,200 rpm for 5 minutes. • 6. The supernatant was removed. The cell pellet were resuspended with 2 mL cell culture medium. • 7. The cell density were counted using cell counter. Only cells with >85% viability were used for the assay. • 8. Cells were diluted to 4×10^5/mL with cell culture medium. • 9. 30 μL/well cell suspensions were added into a 384-well cell plate (The cell density was 12,000 cells/well). • 10. The cell plate was incubated overnight at 37° C., 5% (v/v) CO2.
• 1. On the day of experiments, culture medium was removed from the cell plate. • 2. 10 μL of assay buffer (20 mM HEPES, in 1×HBSS, pH 7.4) was added to each well of the cell plate. • 3. 2× dye solution was prepared following the manufacture's instruction of the FLIPR® Calcium 6 assay kit: • i. The dye was diluted with assay buffer. • ii. probenecid was added to the final concentration of 5 mM. • iii. Vortexed vigorously for 1-2 minutes, adjust pH to 7.4. • 4. 10 μL of 2×dye solution was added to each well of the cell plate. • 5. The cell plate was placed on plate shaker, followed by shaking at 600 rpm for 2 minutes. • 6. The plate was incubated at 37° C. for 2 hours followed by an additional 15-minute incubation at 25° C. 3.4 Prepare 3×compounds. • 1. Serotonin was prepared to the concentration of 10 mM with DMSO, 3-folds serial dilutions were performed with DMSO. • 2. Prepare the test compound to the concentration of 10 mM with DMSO, preform 3-folds serial dilutions with DMSO. • 3. The compounds were added to a 384-well compound source plate. • 4. 90 nL/well of serial diluted compounds were transferred from source plate to a 384-well compound plate by using an Echo. • 5. 30 μL/well of assay buffer was added to the compound plate. • 6. The plate was mixed on-plate shaker for 2 minutes. 3.5 FLIPR assay • 1. After the cells incubate with dye solution, the cell plate, compound plate containing 3×compounds and FLIPR tips were placed into FLIPR. • 2. 10 μL of 3×compounds were transferred from the compound plate to the cell plate by FLIPR. • 3. The plate was read for 160 sec with 1 sec interval to obtain the data of agonist mode.
• 1. The normalized fluorescence reading (RFU) was calculated as shown below, wherein Fmax and Fmin stand for maximum and minimum of calcium signal during defined time window:
RFU=Fmax−Fmin • 2. EC50 was calculated by fitting RFU against log of compound concentrations with Hill equation using XLfit.

Question: With `COc1cc2c(cc1OC)N(C[C@H]1CCCN1C)CC2` [(R)-I-34, (R)-5,6-dimethoxy-1-((1-methylpyrrolidin-2-yl)methyl) indoline] as the compound, how does the “RFU@10 μM” value read?
Answer: Its value is 155 RFU.

Question: Which results are given for `[2H]C([2H])([2H])Oc1ccc2c(c1)N(C([2H])([2H])[C@H]1CCCN1C([2H])([2H])[2H])CC2` [(R)-I-28, (R)-6-(Methoxy-d3)-1-((1-(methyl-d3)pyrrolidin-2-yl)methyl-d2) indoline]?
Answer: RFU@10 μM: 1981 RFU; EC50: 2340 nM

Question: With `[2H]C([2H])([2H])N(CCN1CCc2ccc(OC)cc21)C([2H])([2H])[2H]` [Compound I-70, 2-(6-Methoxyindolin-1-yl)-N, N-bis(methyl-d3) ethan-1-amine] as the compound, how does the “RFU@10 μM” value read?
Answer: The value was 161 RFU.

Question: For `COc1ccc2c(c1)N(C[C@H]1CCCN1)CC2` [(R)-I-59, (R)-6-Methoxy-1-(pyrrolidin-2-ylmethyl) indoline], which “RFU@10 μM” value is on record?
Answer: Its value is 521 RFU.

Question: `[2H]C([2H])([2H])N1CCC[C@@H]1C([2H])([2H])N1CCc2ccccc21` [(R)-I-1, (R)-1-((1-(Methyl-d3)pyrrolidin-2-yl)methyl-d2) indoline] was tested. Which “RFU@10 μM” value did it give?
Answer: The value was 84 RFU.

Question: For `COc1cccc2c1N(C[C@H]1CCCN1C)CC2` [(R)-I-46, (R)-7-Methoxy-1-((1-methylpyrrolidin-2-yl)methyl) indoline], which “RFU@10 μM” value is on record?
Answer: Its value is 373 RFU.

Question: Which “RFU@10 μM” value does the source give for `COc1ccc2c(c1)N(C[C@H]1CCCN1C)CC2` [(R)-I-58, (R)-6-Methoxy-1-((1-methylpyrrolidin-2-yl)methyl) indoline] here?
Answer: The value was 2444 RFU.

Question: What about the EC50 of the same compound?
Answer: The EC50 was 2040 nM.

Question: For `COc1cccc2c1CCN2C[C@H]1CCCN1C` [(R)-I-47, (R)-4-Methoxy-1-((1-methylpyrrolidin-2-yl)methyl) indoline], which “RFU@10 μM” value is on record?
Answer: Its value is 70 RFU.

Question: Which results are given for `[2H]C([2H])([2H])N1CCC[C@@H]1C([2H])([2H])N1CCc2ccc(OC)cc21` [(R)-I-57, (R)-6-Methoxy-1-((1-(methyl-d3)pyrrolidin-2-yl)methyl-d2) indoline]?
Answer: RFU@10 μM: 2081 RFU; EC50: 1260 nM

Question: Which “RFU@10 μM” value does the source give for `[2H]C([2H])([2H])N(CCN1CCc2ccccc21)C([2H])([2H])[2H]` [Compound I-71, 2-(Indolin-1-yl)-N,N-bis(methyl-d3) ethan-1-amine] here?
Answer: The value was 145 RFU.
